From patent US20180327806A1, “MULTIPLEX HIGH-[…] OF MICRO-ORGANISM STRAINS, RELATED KITS, D[…] AND SCREENING ASSAYS” (THE BROAD INSTITUTE, INC., priority 2015, published 2018) come the findings set out here.

The subject of test [1] is PA14 strain with MurA knockdown (hypomorph). Kind of test: Growth of PA14 MurA knockdown (hypomorph) strain with drug. The test is classed as cell-based, Pseudomonas aeruginosa. From the text:
Engineering hypersusceptible strains (hypomorph strains): Strain PA14 is engineered so that the expression of selected essential genes may be lowered using a ‘weaker’ promoter. […] 30). It is possible to use a promoter library of varying strengths that was developed to drive GFP expression in E. coli (Davis, J. H., A. J. Rubin, and R. T. Sauer, Design, construction and characterization of a set of insulated bacterial promoters. Nucleic Acids Res, 2011. 39(3): p. 1131-41). […] The weakest promoter that provides the lowest tolerable level of the protein that still yields a viable bacterium may be used for each essential gene to create a hypersensitive strain. It is also proposed to construct control strains by knocking out dihydrofolate reductase dhfr (which is the target of trimethoprim), dihydropteroate synthetase dhps (which is the target of sulfamethoxazole), murA (which is the target of fosfomycin) and ostA (which is the OMP target of POL7001 [Srinivas, N., et al., Peptidomimetic antibiotics target outer-membrane biogenesis in Pseudomonas aeruginosa. Science, 2010. 327(5968): p. 1010-3.]). Then, it is possible to measure the MIC for each of these compounds against their respective strains compared to wild-type PA14.
FIG. 5 illustrates the use of variable promoters for generating and selecting hypomorph strains. […]

A further test deals with dfrA hypomorph strain. It counts as cell-based, M. tuberculosis. To be noted: drug targeting dfrA.

In the case of `C[C@@H]1O[C@@H]1P(=O)(O)O` [fosfomycin], in test [1], the “sensitivity of MurA knockdown PA14 strain to drug” value is reported as “hypersensitive”.

Turning to `CN(Cc1cnc2nc(N)nc(N)c2n1)c1ccc(C(=O)N[C@@H](CCC(=O)O)C(=O)O)cc1` [methotrexate], the “sensitivity of dfrA hypomorph strain to drug (dose response curve)” value in the test on dfrA hypomorph strain was “hypersensitive”.
